Experimental data: article PMC2873968, “Novel protein kinase D inhibitors cause potent arrest in prostate cancer cell growth and motility” (BMC Chemical Biology, 2010)

Legend:
PC3 cells [1] = assay: Cyclin D1 and cyclin D3 levels (Western blot); assay type: cell-based
PKCβI = biological target: T1, PKCβI (Homo sapiens, UniProt P05771); set-up: method as in PMID 18829454; settings: previously reported; cited from earlier work
T1 construct: purchased Cell Signaling Technology

PKCδ = biological target: T2, PKCδ (Homo sapiens, UniProt Q05655); set-up: method as in PMID 18829454; settings: previously reported; cited from earlier work
T2 construct: purchased Enzo Life Sciences
T2 sequence (Q05655 whole entry): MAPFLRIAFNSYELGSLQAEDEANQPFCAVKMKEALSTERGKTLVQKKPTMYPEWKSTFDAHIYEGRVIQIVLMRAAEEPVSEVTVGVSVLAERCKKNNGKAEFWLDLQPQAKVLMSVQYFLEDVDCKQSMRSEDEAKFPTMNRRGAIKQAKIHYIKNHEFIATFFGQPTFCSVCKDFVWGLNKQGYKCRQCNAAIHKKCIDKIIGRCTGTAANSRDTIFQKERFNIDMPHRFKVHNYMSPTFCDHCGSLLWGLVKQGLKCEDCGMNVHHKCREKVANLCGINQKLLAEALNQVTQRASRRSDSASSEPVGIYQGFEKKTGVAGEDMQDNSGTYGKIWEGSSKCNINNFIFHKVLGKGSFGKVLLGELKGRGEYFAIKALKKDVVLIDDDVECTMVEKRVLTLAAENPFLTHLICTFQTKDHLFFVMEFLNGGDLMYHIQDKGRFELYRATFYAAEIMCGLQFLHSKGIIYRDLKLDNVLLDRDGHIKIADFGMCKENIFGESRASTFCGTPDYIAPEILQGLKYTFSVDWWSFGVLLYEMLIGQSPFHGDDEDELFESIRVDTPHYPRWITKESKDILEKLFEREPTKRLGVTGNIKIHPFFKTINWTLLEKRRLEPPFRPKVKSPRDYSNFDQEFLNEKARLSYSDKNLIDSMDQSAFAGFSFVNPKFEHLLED

PC3 cells [2] = tested on: PC3 cells; set-up: method as in PMID 18829454; settings: 10 or 25 μM for six days; cited from earlier work
CAK = tested on: CAK; set-up: method as in PMID 18829454; settings: previously reported; cited from earlier work
CHK1 = CHK1 (Homo sapiens, UniProt O14757); assay: Kinase profiling, single-dose in vitro kinase assay (Caliper Life Sciences); settings: read-out: Average % Inhibition CHK1
Sequence of CHK1 (O14757 whole entry): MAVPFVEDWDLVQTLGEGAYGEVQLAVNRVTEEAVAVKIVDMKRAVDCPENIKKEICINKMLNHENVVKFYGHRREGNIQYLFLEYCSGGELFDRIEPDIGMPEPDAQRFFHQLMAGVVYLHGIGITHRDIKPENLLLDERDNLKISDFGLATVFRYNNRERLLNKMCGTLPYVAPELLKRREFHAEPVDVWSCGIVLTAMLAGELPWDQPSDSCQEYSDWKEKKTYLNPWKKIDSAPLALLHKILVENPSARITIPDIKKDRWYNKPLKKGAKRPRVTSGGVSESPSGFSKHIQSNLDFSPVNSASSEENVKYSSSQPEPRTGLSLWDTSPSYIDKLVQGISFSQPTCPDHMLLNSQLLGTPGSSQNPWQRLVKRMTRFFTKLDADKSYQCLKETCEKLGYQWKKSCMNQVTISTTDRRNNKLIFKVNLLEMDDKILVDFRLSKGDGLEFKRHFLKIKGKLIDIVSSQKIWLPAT

p70S6K = p70S6K (Homo sapiens, UniProt P23443); assay: as above; settings: read-out: Average % Inhibition p70S6K
Sequence of p70S6K (P23443 whole entry): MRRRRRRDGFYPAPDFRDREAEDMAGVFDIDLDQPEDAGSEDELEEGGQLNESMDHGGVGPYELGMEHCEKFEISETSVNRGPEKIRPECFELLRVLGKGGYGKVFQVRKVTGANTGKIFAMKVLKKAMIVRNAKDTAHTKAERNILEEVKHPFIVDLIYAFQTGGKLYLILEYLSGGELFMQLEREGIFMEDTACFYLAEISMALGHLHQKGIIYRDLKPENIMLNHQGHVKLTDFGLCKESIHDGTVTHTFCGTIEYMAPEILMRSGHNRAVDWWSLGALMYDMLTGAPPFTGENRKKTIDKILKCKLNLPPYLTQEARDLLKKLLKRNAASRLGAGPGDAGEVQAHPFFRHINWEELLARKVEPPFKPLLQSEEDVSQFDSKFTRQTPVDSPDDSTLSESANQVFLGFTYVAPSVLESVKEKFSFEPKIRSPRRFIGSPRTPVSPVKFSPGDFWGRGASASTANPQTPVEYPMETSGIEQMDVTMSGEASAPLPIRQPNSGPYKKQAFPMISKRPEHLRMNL

PKCθ = PKCθ (Homo sapiens, UniProt Q04759); assay: as above; settings: read-out: Average % Inhibition PKCθ
Sequence of PKCθ (Q04759 whole entry): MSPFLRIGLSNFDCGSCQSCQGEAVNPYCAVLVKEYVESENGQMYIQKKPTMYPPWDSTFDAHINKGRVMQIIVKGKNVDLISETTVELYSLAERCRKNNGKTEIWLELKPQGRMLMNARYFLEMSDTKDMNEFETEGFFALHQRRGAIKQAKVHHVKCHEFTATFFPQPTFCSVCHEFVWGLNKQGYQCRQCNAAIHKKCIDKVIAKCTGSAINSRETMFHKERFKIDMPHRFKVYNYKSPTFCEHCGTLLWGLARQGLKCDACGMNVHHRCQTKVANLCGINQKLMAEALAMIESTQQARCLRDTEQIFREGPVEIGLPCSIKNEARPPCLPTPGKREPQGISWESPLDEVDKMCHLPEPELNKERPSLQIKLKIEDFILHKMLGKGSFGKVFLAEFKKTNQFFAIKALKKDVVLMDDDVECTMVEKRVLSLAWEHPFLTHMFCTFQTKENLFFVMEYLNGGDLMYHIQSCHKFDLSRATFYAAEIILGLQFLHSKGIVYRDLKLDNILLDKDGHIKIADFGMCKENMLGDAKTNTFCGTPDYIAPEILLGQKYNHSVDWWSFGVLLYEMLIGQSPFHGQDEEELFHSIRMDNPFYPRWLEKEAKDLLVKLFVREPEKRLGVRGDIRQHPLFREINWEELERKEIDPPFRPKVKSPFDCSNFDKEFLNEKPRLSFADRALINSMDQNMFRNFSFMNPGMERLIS

SGK1 = SGK1 (Homo sapiens, UniProt O00141); assay: as above; settings: read-out: Average % Inhibition SGK1
Sequence of SGK1 (O00141 whole entry): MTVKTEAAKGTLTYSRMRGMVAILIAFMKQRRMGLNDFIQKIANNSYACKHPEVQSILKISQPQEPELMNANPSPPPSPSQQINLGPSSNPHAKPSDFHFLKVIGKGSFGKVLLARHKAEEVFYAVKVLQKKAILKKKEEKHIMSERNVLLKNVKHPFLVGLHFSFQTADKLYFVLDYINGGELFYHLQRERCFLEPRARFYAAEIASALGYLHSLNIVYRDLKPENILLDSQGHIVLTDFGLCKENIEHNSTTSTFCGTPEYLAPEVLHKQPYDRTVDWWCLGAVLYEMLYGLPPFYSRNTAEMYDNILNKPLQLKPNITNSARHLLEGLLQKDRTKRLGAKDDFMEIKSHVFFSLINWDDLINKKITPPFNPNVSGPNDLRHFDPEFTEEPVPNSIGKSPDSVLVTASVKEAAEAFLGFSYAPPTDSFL

SRC = SRC (Homo sapiens, UniProt P12931); assay: as above; settings: read-out: Average % Inhibition SRC
Sequence of SRC (P12931 whole entry): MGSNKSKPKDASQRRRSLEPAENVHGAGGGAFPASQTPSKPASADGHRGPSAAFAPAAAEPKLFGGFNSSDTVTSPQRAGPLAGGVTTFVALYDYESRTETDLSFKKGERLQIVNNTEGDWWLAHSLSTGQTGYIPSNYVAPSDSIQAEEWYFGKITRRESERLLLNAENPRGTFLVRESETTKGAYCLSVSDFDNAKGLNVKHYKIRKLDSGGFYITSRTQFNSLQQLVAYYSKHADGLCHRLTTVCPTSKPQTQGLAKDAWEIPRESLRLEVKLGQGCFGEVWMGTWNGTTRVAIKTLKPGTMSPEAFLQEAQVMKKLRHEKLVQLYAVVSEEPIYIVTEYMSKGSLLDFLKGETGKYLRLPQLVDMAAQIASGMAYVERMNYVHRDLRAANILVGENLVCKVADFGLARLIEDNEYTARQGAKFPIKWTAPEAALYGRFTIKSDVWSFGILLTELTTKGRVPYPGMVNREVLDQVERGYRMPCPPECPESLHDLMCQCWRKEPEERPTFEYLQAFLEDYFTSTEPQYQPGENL

DU145 cells = assay: Wound healing assay; assay type: cell-based; settings: 25 μM, 24 h
Method: (§1) Wound-induced migration was measured as described previously. Briefly, PC3 or DU145 cells were grown to confluence in 6-well plates. Migration was initiated by scraping the monolayer with a pipette tip, creating a "wound." The indicated concentration of compound was added to the media, and the wound was imaged immediately under an inverted phase-contrast microscope with 10× objective. After 24 h, cells were fixed in methanol and stained with 1% crystal violet, and a final image was taken. The wound gap was measured, and % wound healing was calculated. The average % wound healing was determined based on at least 9 measurements of the wound gap.
(§2) The analogs inhibited wound healing in prostate cancer cells. DU145 cells (A) or PC3 cells (B) were grown to confluence in 6-well plates. The monolayer was wounded and imaged immediately. Cells were then treated with either vehicle (DMSO) or analogs at indicated concentration for 24 hours. Cells were then fixed and stained with 0.5% crystal violet. Percentage wound closure was calculated as an average of 9 determinations for each concentration/compound as described under "Methods." Data shown are the mean ± S.E.M. for three independent experiments. Statistical significance versus the DMSO control was determined by unpaired t-test in GraphPad Prism V. ns, not statistically significant; *, p < 0.05; **, p < 0.01; ***, p < 0.001.

PC3 cells [3] = assay: Wound healing assay; assay type: cell-based; settings: 25 μM, 24 h
Method: as §1, §2

PKD1 = biological target: T3, PKD1 (Homo sapiens, UniProt Q15139); assay: Inhibition of PMA-induced endogenous PKD1 activation in LNCaP cells (Western blot); assay type: cell-based; set-up: endogenous in cells; host or cells: LNCaP; settings: 45 min pretreatment, 100 nM PMA 20 min, densitometry of Western blots, mean ± S.E.M., read-out: Cellular IC50, inhibition of PKD1 autophosphorylation at S916
T3 sequence (Q15139 1-912): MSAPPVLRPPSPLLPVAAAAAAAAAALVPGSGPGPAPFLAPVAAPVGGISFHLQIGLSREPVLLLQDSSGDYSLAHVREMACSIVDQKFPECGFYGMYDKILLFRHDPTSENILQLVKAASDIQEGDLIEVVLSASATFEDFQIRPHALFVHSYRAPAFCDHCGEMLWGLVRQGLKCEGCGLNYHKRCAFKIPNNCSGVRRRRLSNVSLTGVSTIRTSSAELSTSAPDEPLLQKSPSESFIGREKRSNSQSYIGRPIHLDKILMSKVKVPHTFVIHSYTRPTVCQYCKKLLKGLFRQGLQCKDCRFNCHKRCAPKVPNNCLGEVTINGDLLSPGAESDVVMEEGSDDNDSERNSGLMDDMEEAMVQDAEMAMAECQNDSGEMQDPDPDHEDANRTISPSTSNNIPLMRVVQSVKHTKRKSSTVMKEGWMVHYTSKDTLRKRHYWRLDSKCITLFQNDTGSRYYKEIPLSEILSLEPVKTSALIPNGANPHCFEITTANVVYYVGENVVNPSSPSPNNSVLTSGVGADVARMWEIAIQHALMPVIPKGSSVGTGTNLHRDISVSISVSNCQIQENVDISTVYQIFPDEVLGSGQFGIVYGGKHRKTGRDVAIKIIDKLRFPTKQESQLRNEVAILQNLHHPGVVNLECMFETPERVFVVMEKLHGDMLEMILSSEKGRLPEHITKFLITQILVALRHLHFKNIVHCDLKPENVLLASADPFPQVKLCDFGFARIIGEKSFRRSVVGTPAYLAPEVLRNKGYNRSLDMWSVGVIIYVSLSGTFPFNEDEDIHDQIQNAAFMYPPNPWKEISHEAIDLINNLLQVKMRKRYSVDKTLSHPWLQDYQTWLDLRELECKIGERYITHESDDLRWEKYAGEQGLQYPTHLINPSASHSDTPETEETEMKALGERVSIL
Method: LNCaP cells were maintained as described previously. Western blot analysis was carried out as previously reported. Briefly, cells were lysed in lysis buffer containing 200 mM Tris-HCl, pH 7.4, 100 μM 4-(2-aminoethyl) benzenesulfonyl fluoride, 1 mM EGTA, and 1% Triton X-100. Protein concentration was determined using the BCA Protein Concentration Assay reagent kit (Pierce) and then equal amounts of protein were subjected to SDS-PAGE followed by electrotransfer to nitrocellulose membranes. Membranes were blocked with 5% nonfat milk in Tris-buffered saline and then probed with primary antibodies for either p-S916-PKD1 (Millipore), p-S742-PKCμ/PKD (Biosource), or GAPDH, followed by anti-mouse or anti-rabbit secondary antibodies conjugated to horseradish peroxidase (Bio-Rad). The enhanced chemiluminescence (ECL) Western blotting detection system (Amersham Biosciences) was used to facilitate detection of protein bands.
LNCaP cells were pretreated with indicated concentrations of the five analogs for 45 min, then stimulated with 100 nM PMA for 20 min. Cell lysates were immunoblotted for p-S916-PKD1 and p-S742-PKD1. GAPDH was blotted as a loading control. The experiment was repeated at least three times and representative blots are shown.

T1 sequence (P05771 whole entry): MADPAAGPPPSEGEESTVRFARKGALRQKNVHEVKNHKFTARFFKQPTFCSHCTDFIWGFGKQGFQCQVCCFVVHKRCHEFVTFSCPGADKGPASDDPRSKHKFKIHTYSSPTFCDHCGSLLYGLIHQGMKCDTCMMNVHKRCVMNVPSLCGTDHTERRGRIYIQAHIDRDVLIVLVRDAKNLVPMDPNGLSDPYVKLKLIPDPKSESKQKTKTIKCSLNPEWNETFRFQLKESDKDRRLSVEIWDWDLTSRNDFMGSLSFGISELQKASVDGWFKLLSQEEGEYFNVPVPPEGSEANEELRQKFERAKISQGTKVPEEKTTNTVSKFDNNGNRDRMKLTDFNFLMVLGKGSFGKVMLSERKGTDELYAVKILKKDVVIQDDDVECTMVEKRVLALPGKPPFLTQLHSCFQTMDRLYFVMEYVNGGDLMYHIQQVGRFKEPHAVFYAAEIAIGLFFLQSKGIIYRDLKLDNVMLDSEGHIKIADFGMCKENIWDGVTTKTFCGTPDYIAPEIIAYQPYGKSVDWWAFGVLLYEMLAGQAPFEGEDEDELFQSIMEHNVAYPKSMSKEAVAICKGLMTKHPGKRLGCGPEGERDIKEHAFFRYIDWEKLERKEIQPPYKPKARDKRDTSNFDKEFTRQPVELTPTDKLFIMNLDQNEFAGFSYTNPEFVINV

In the case of `O=C1NCCCc2c1oc1ccc(O)cc21` [CID755673, 7-Hydroxy-2,3,4,5-tetrahydro-[1]benzoxolo[2,3-c]azepin-1-one], the “cyclin D1 and D3 levels” value (PC3 cells [1]; 48 hrs) is given as “induced cyclin D1 and D3 expression in a concentration-dependent manner”, the “inhibition of PKCβI” value (PKCβI) is given as “did not inhibit” and the “inhibition of PKCδ” value (PKCδ) is given as “did not inhibit”. For the same compound, the cell cycle arrest (PC3 cells [2]) was “caused G2/M phase cell cycle arrest”, the “inhibition of CAK” value (CAK) was “did not inhibit” and the inhibition at 10 µM (CHK1) was 7%. It also gave an inhibition at 10 µM (p70S6K) of 44%, an inhibition at 10 µM (PKCθ) of 32% and an inhibition at 10 µM (SGK1) of 9%. It also gave an inhibition at 10 µM (SRC) of 7%.
With `O=C1NCCSc2c1sc1ccc(O)cc21` [kb-NB142-70] the wound closure (DU145 cells) was 25-35%, the wound closure (PC3 cells [3]) was 25-35% and the IC50 (PKD1) was 2.2 ± 0.6 µM.
With `COc1ccc2sc3c(c2c1)SCCNC3=O` [kb-NB165-09] the wound closure (DU145 cells) was 25-35%, the wound closure (PC3 cells [3]) was 25-35% and the IC50 (PKD1) was 3.1 ± 0.5 µM.
In the case of `O=C1NCCSc2c1sc1ccc(O)c(I)c21` [kb-NB165-31], the wound closure (DU145 cells) is reported as 55-60%, the wound closure (PC3 cells [3]) is reported as 55-60% and the IC50 (PKD1) is reported as 8.6 ± 2 µM.
For `O=C1NCCCSc2c1sc1ccc(O)cc21` [kb-NB165-92], the cell death (PC3 cells [1]; 10 μM) was “caused significant cell death” and the IC50 (PKD1) was 2.6 ± 0.7 µM.
For `COc1ccc2sc3c(c2c1)SCCCNC3=O` [kb-NB184-02], the IC50 (PKD1) was 18.6 ± 2 µM.
